Consider three compounds from US20060154889A1, “Polyfluorinated nucleoside analogs and methods of use thereof” (priority 2004, published 2006).

System in the first series: not listed separately
The series is described as follows: Octanol-water partitioning of free nucleosides.
Details: not given
How it is done:
We explicitly examined hydrophobicity of the four nucleosides by partitioning between 1-octanol and water.
Octanol-water partitioning. The experimental solvent partitioning studies for free nucleosides were carried out as described. Experiments were carried out in triplicate and the results averaged to increase accuracy.
As for `OC[C@H]1O[C@@H](n2ccc3c(F)c(F)c(F)c(F)c32)C[C@@H]1O` [^FI, 1′,2′-dideoxy-β-1′-(N-4,5,6,7-tetrafluoroindole)-D-ribofuranose], the “log P” value is listed as 1.66 (0.10).
As for `OC[C@H]1O[C@@H](c2cc(F)c(F)c(F)c2F)C[C@@H]1O` [2,3,4,5-tetrafluorophenyl, 1′,2′-dideoxy-β-1′-(2,3,4,5-tetrafluorophenyl)-D-ribofuranose], the “log P” value is 1.39 (0.10).

The same series, now with this note: free nucleoside, 1-octanol and water, triplicate.
Take “1′,2′-dideoxy-β-1′-(N-indole)-D-ribofuranose [reference compound]”: the “log P” value was 0.99 (0.10).

Another series concerns XAGCGCT. The series is described as follows: Dangling-end thermal denaturation, sequence XAGCGCT (Table 2).
Details: not given
It counts as physicochemical. How it is done:
(§1) The dangling-end experimental method was utilized to evaluate the ability of the fluorinated aromatic base analogues to stabilize DNA duplexes when substituted directly adjacent to the helix. The relative stabilizations were measured by comparison of the energetics for helix—coil melting transition of the “core “duplex (lacking any “dangling “nucleotide) to that containing the extra nucleotide. Five short self-complementary sequence contexts were used; the sequences were chosen because they had been shown previously to be well-behaved thermodynamically in the dangling-end configuration. Data from two of the contexts are shown in Table 1, and data for the remaining three show similar trends. By use of these five contexts we were able to compare stacking effects of the base analogues with all four neighboring DNA bases in the helix.
(§2) Methods for thermodynamic measurements. Thermal denaturation. […] Solutions were then heated to 90° C. for 5 minutes and annealed by slowly cooling to room temperature and then to 0° C.
Regarding `OC[C@H]1O[C@@H](c2cc(F)c(F)c(F)c2F)C[C@@H]1O` [2,3,4,5-tetrafluorophenyl, 1′,2′-dideoxy-β-1′-(2,3,4,5-tetrafluorophenyl)-D-ribofuranose], the G stacking is reported as 1.4.

The same series, now with this note: marker c.
As to `OC[C@H]1O[C@@H](c2cc(F)c(F)c(F)c2F)C[C@@H]1O` [2,3,4,5-tetrafluorophenyl, 1′,2′-dideoxy-β-1′-(2,3,4,5-tetrafluorophenyl)-D-ribofuranose], the “−G37” value was 8.3 kcal, the “−H” value is 48.4 kcal and the “−S” value turned out to be 129 eu.

Still in this series, the particulars now being: marker d.
For `OC[C@H]1O[C@@H](c2cc(F)c(F)c(F)c2F)C[C@@H]1O` [2,3,4,5-tetrafluorophenyl, 1′,2′-dideoxy-β-1′-(2,3,4,5-tetrafluorophenyl)-D-ribofuranose], the “−G37” value is given as 8.3 kcal.

A further series deals with XGTAGCTAC
The series is described as follows: Dangling-end thermal denaturation, sequence XGTAGCTAC (Table 2). It counts as physicochemical.
Details: not given
How it is done:
as §1, §2
With `OC[C@H]1O[C@@H](c2cc(F)c(F)c(F)c2F)C[C@@H]1O` [2,3,4,5-tetrafluorophenyl, 1′,2′-dideoxy-β-1′-(2,3,4,5-tetrafluorophenyl)-D-ribofuranose], the G stacking is recorded as 1.7.

Staying with this series, now noted: marker c.
In the case of `OC[C@H]1O[C@@H](c2cc(F)c(F)c(F)c2F)C[C@@H]1O` [2,3,4,5-tetrafluorophenyl, 1′,2′-dideoxy-β-1′-(2,3,4,5-tetrafluorophenyl)-D-ribofuranose], the “−G37” value is 8.8 kcal, the “−H” value is on record as 57.0 kcal and the “−S” value is 156 eu.

Still in this series, the particulars now being: marker d.
Consider `OC[C@H]1O[C@@H](c2cc(F)c(F)c(F)c2F)C[C@@H]1O` [2,3,4,5-tetrafluorophenyl, 1′,2′-dideoxy-β-1′-(2,3,4,5-tetrafluorophenyl)-D-ribofuranose], for which the “−G37” value is listed as 8.8 kcal.

Another series relates to (dCGCGCG)2 core duplex. The series is described as follows: Dangling-end thermal denaturation, sequence XCGCGCG (Table 1). Conditions: (dCGCGCG)2 core duplex. It is filed as physicochemical. The protocol: (§3) The dangling-end experimental method was utilized to evaluate the ability of the fluorinated aromatic base analogues to stabilize DNA duplexes when substituted directly adjacent to the helix. The relative stabilizations were measured by comparison of the energetics for helix-coil melting transition of the “core “duplex (lacking any “dangling “nucleotide) to that containing the extra nucleotide. Five short self-complementary sequence contexts were used; the sequences were chosen because they had been shown previously to be well-behaved thermodynamically in the dangling-end configuration. Data from two of the contexts are shown in Table 1, and data for the remaining three show similar trends. By use of these five contexts we were able to compare stacking effects of the base analogues with all four neighboring DNA bases in the helix. Methods for thermodynamic measurements. Thermal denaturation. […] Solutions were then heated to 90° C. for 5 minutes and annealed by slowly cooling to room temperature and then to 0° C. […] Calculations.
As for `OC[C@H]1O[C@@H](c2cc(F)c(F)c(F)c2F)C[C@@H]1O` [2,3,4,5-tetrafluorophenyl, 1′,2′-dideoxy-β-1′-(2,3,4,5-tetrafluorophenyl)-D-ribofuranose], the “ΔΔG stacking (stability contributed)” value was −2.2 kcalmol^−1.

The same series, now with this note: XCGCGCG; 1 M NaCl, 10 mM sodium phosphate pH 7.0; 5.0 μM DNA-strand.
`OC[C@H]1O[C@@H](c2cc(F)c(F)c(F)c2F)C[C@@H]1O` [2,3,4,5-tetrafluorophenyl, 1′,2′-dideoxy-β-1′-(2,3,4,5-tetrafluorophenyl)-D-ribofuranose]: the Tm was 53.9 °C.

Staying with this series, now noted: XCGCGCG; Van't Hoff plots.
On to `OC[C@H]1O[C@@H](c2cc(F)c(F)c(F)c2F)C[C@@H]1O` [2,3,4,5-tetrafluorophenyl, 1′,2′-dideoxy-β-1′-(2,3,4,5-tetrafluorophenyl)-D-ribofuranose], for which the “−ΔG37” value is listed as 10.3 ± 0.2 kcal, the “−ΔH” value is 53.8 kcal and the “−ΔS” value is reported as 93 eu.

The same series, now with this note: XCGCGCG; average from fits to individual melting curves.
With `OC[C@H]1O[C@@H](c2cc(F)c(F)c(F)c2F)C[C@@H]1O` [2,3,4,5-tetrafluorophenyl, 1′,2′-dideoxy-β-1′-(2,3,4,5-tetrafluorophenyl)-D-ribofuranose], the “−ΔG37” value was found to be 10.2 ± 0.2 kcal.

The series is the same for the next values; noted with them: XCGCGCG; difference from core duplex.
`OC[C@H]1O[C@@H](c2cc(F)c(F)c(F)c2F)C[C@@H]1O` [2,3,4,5-tetrafluorophenyl, 1′,2′-dideoxy-β-1′-(2,3,4,5-tetrafluorophenyl)-D-ribofuranose] registered a ΔΔG stacking of 2.2 ± 0.2.

Staying with this series, now noted: XCGCGCG; vs core duplex.
Regarding `OC[C@H]1O[C@@H](c2cc(F)c(F)c(F)c2F)C[C@@H]1O` [2,3,4,5-tetrafluorophenyl, 1′,2′-dideoxy-β-1′-(2,3,4,5-tetrafluorophenyl)-D-ribofuranose], the ΔTm came to 12.6 °C.

A further series has as its system XTGAGCTCA
The series is described as follows: Dangling-end thermal denaturation, sequence XTGAGCTCA (Table 2). It is filed as physicochemical.
Details: not given
The protocol: as §1, §2
`OC[C@H]1O[C@@H](c2cc(F)c(F)c(F)c2F)C[C@@H]1O` [2,3,4,5-tetrafluorophenyl, 1′,2′-dideoxy-β-1′-(2,3,4,5-tetrafluorophenyl)-D-ribofuranose] registered a G stacking of 1.5.

Still in this series, the particulars now being: marker c.
Regarding `OC[C@H]1O[C@@H](c2cc(F)c(F)c(F)c2F)C[C@@H]1O` [2,3,4,5-tetrafluorophenyl, 1′,2′-dideoxy-β-1′-(2,3,4,5-tetrafluorophenyl)-D-ribofuranose], the “−G37” value is listed as 9.1 kcal, the “−H” value was 51.9 kcal and the “−S” value amounted to 138 eu.

Staying with this series, now noted: marker d.
In the case of `OC[C@H]1O[C@@H](c2cc(F)c(F)c(F)c2F)C[C@@H]1O` [2,3,4,5-tetrafluorophenyl, 1′,2′-dideoxy-β-1′-(2,3,4,5-tetrafluorophenyl)-D-ribofuranose], the “−G37” value worked out at 9.2 kcal.

For a further series, the system named is XACAGCTGT
The series is described as follows: Dangling-end thermal denaturation, sequence XACAGCTGT (Table 1). It counts as physicochemical. The note with it: 1 M NaCl, 10 mM sodium phosphate pH 7.0, 5.0 μM DNA-strand. How it is done: as §3
Turning to `OC[C@H]1O[C@@H](c2cc(F)c(F)c(F)c2F)C[C@@H]1O` [2,3,4,5-tetrafluorophenyl, 1′,2′-dideoxy-β-1′-(2,3,4,5-tetrafluorophenyl)-D-ribofuranose], the Tm was 50.9 °C.

The same series, now with this note: Van't Hoff plots.
On to `OC[C@H]1O[C@@H](c2cc(F)c(F)c(F)c2F)C[C@@H]1O` [2,3,4,5-tetrafluorophenyl, 1′,2′-dideoxy-β-1′-(2,3,4,5-tetrafluorophenyl)-D-ribofuranose], for which the “−ΔG37” value is reported as 10.7 ± 0.2 kcal, the “−ΔH” value is listed as 76.3 kcal and the “−ΔS” value was 212 eu.

The same series, now with this note: average from fits to individual melting curves.
With `OC[C@H]1O[C@@H](c2cc(F)c(F)c(F)c2F)C[C@@H]1O` [2,3,4,5-tetrafluorophenyl, 1′,2′-dideoxy-β-1′-(2,3,4,5-tetrafluorophenyl)-D-ribofuranose], the “−ΔG37” value was determined as 9.8 ± 0.2 kcal.

The same series, now with this note: difference from core duplex.
As for `OC[C@H]1O[C@@H](c2cc(F)c(F)c(F)c2F)C[C@@H]1O` [2,3,4,5-tetrafluorophenyl, 1′,2′-dideoxy-β-1′-(2,3,4,5-tetrafluorophenyl)-D-ribofuranose], the ΔΔG stacking was found to be 2.3 ± 0.2.

Still in this series, the particulars now being: vs core duplex.
Turning to `OC[C@H]1O[C@@H](c2cc(F)c(F)c(F)c2F)C[C@@H]1O` [2,3,4,5-tetrafluorophenyl, 1′,2′-dideoxy-β-1′-(2,3,4,5-tetrafluorophenyl)-D-ribofuranose], the shift in melting temperature (ΔTm) was determined as 10.0 °C.

The subject of the next series is 5′XCGCGCG3′. The series is described as follows: Dangling end stacking in 6-bp self-complementary DNA (Table S3). It is filed as physicochemical. Conditions: 5′XCGCGCG3′ dangling base. The protocol:
To seek evidence for the origins of this selectivity, we examined individual properties of the four nonpolar nucleoside analogues. Stacking was evaluated by the standard dangling end approach using a 6-bp self-complementary DNA.
Calculations. […] (Table 4 and Table 5)
As for `OC[C@H]1O[C@@H](n2ccc3c(F)c(F)c(F)c(F)c32)C[C@@H]1O` [^FI, 1′,2′-dideoxy-β-1′-(N-4,5,6,7-tetrafluoroindole)-D-ribofuranose], the “ΔG°37 (Van't Hoff)” value was -11.1 ± 0.2 kcal, the “ΔG°37 (avg.)” value was -11.2 ± 0.2 kcal, the “ΔG°37 (fits)” value was -11.3 ± 0.2 kcal and the “ΔH° (van't Hoff)” value was -52.6 kcal. Also, the “ΔS° (Van't Hoff)” value was −134 eu.
With “1′,2′-dideoxy-β-1′-(N-indole)-D-ribofuranose [reference compound]”, the “ΔG°37 (Van't Hoff)” value was -10.2 ± 0.3 kcal, the “ΔG°37 (avg.)” value is -10.0 ± 0.2 kcal, the “ΔG°37 (fits)” value was -9.9 ± 0.1 kcal and the “ΔH° (van't Hoff)” value is -60.2 kcal. Moreover, the “ΔS° (Van't Hoff)” value was −161 eu.
Consider `OC[C@H]1O[C@@H](c2cc(F)c(F)c(F)c2F)C[C@@H]1O` [2,3,4,5-tetrafluorophenyl, 1′,2′-dideoxy-β-1′-(2,3,4,5-tetrafluorophenyl)-D-ribofuranose], for which the “ΔG°37 (Van't Hoff)” value was -10.3 ± 0.2 kcal, the “ΔG°37 (avg.)” value is -10.2 ± 0.2 kcal, the “ΔG°37 (fits)” value was -10.2 ± 0.2 kcal and the “ΔH° (van't Hoff)” value was -53.8 kcal. The “ΔS° (Van't Hoff)” value is given as −93 eu.

The same series, now with this note: 5′XCGCGCG3′ dangling base; 1 M NaCl, 10 mM phosphate buffer (pH 7.0), 0.1 mM EDTA; 5.0 μM.
`OC[C@H]1O[C@@H](n2ccc3c(F)c(F)c(F)c(F)c32)C[C@@H]1O` [^FI, 1′,2′-dideoxy-β-1′-(N-4,5,6,7-tetrafluoroindole)-D-ribofuranose]: the Tm turned out to be 59.3 °C.
With “1′,2′-dideoxy-β-1′-(N-indole)-D-ribofuranose [reference compound]”, the Tm is 51.6 °C.
On the same count and under the same terms, next, `OC[C@H]1O[C@@H](c2cc(F)c(F)c(F)c2F)C[C@@H]1O` [2,3,4,5-tetrafluorophenyl, 1′,2′-dideoxy-β-1′-(2,3,4,5-tetrafluorophenyl)-D-ribofuranose]: 53.9 °C.

Staying with this series, now noted: ^FB vs B; ^FI vs I.
On to `OC[C@H]1O[C@@H](n2ccc3c(F)c(F)c(F)c(F)c32)C[C@@H]1O` [^FI, 1′,2′-dideoxy-β-1′-(N-4,5,6,7-tetrafluoroindole)-D-ribofuranose], for which the “stacks more favorably than parent hydrocarbon” value is 1.1 kcal/mol.
With `OC[C@H]1O[C@@H](c2cc(F)c(F)c(F)c2F)C[C@@H]1O` [2,3,4,5-tetrafluorophenyl, 1′,2′-dideoxy-β-1′-(2,3,4,5-tetrafluorophenyl)-D-ribofuranose], the “stacks more favorably than parent hydrocarbon” value is 1.0 kcal/mol.
